# From US9808003B2, “Herbicidally active 2-(substituted-phenyl)-cyclopentane-1,3-dione compounds and derivatives thereof” (Syngenta Limited, priority 2013, dated 2017)
# Tests used:
# Format in all cases: in vivo
# Winter Barley “Suzuka” = test: Test 1B glasshouse assay, post-emergence herbicidal activity against cereal crops
# Procedure: (§1) Biological Example 1B tests the herbicidal activity of“technical” compounds (i.e. compounds not previously formulated before the test), as the herbicides under test.
# (§2) An “instant formulation”, known as the “IF50”, containing 50 g/liter (i.e. 5% w/v) of the “technical” (i.e. unformulated) active ingredient (i.e. the herbicide under test), is prepared by dissolving the active ingredient in a mixture of organic solvents and emulsifier, details of which are provided in the Table below.
# (§3) This IF50 is mixed with a small, variable amount of acetone to aid dissolution, before addition of a 0.5% v/v aqueous solution of the adjuvant Adigor™ (an adjuvant containing rapeseed oil methyl ester, ethoxylated alcohols, and a mixture of heavy aromatic hydrocarbons, e.g. available from Syngenta), as the aqueous diluent, to form an aqueous spray solution which contains a predetermined concentration of the active ingredient (which varies depending on the application rate of the active ingredient to the plants) and 0.5% v/v of the adjuvant Adigor™. This aqueous spray solution is suitable for spraying onto plants.
# (§4) Seeds of a variety of test species are sown in standard soil in pots. After cultivation for 14 days under controlled conditions in a glasshouse (at 22/16° C., day/night; 16 hours light; 65% humidity), the plants are sprayed post-emergence with the above-mentioned aqueous spray solution containing inter alia the “technical” active ingredient (i.e. the herbicide under test) and the adjuvant Adigor™.
# (§5) The test plants are then grown on under controlled conditions in the glasshouse (at 22/16° C., day/night; 16 hours light; 65% humidity) and are watered twice daily. 14 days after application of the test herbicide, the test is evaluated visually for percentage phytotoxicity to the plant (where 100%=total damage to plant; 0%=no damage to plant).
# (§6) More specifically, post-emergence herbicidal activity (phytotoxicity) data, on certain tested grassy monocotyledonous weeds (and/or plants of the type Gramineae) and cereal crops in the glasshouse, are measured 14 days after application of the herbicide (14 DAA), typically for inter alia one or more of the following application rates: • (a) a post-emergence application rate of 60 g/ha of the test herbicide with or without 50 g/ha of cloquintocet-mexyl safener, and • (b) a post-emergence application rate of 90 g/ha of the test herbicide with 50 g/ha of cloquintocet-mexyl safener, and • (c) a post-emergence application rate of 120 g/ha of the test herbicide with 50 g/ha of cloquintocet-mexyl safener.
# (§7) The cloquintocet-mexyl, when used, is present in the formulation containing the herbicide under test dissolved in acetone plus IF50.
# (§8) The range of herbicide application rates tested sometimes includes application rates other than those shown above, and the rates can vary depending on the herbicide under test.
# (§9) Herbicidal activity (phytotoxicity) is evaluated visually, and an assessed percentage phytotoxicity score is given for each herbicidal application on each plant species (with 100%=total damage to plant; 0%=no damage to plant; the assessment is recorded in increments of 1%). Two replicates are made for each experiment, and the mean herbicidal activity (phytotoxicity) data is reported.
# [1] = test system: Spring Barley “Harrington”; test: as above
# Procedure: as §1, §2, §3, §4, §5, §6, §7, §8, §9
# Winter Wheat “Hereward” = test: as above
# Procedure: as §1, §2, §3, §4, §5, §6, §7, §8, §9
# Spring Wheat “Freya” = test: as above
# [2] = test system: Alopecurus myosuroides (ALOMY); test: Test 1B glasshouse assay, post-emergence herbicidal activity against grassy weeds; conditions: 14 DAA
# Procedure: as §1, §2, §3, §4, §5, §6, §7, §8, §9
# (§10) For compounds A34, A98, A99, A87, A100, A101, A89, A120, A120A, A120B, A23, A127, A128, A89, A112 and A113 the tested weeds were as follows: Avena fatua (AVEFA), Lolium multiflorum (LOLMU), Setaria viridis (SETVI), Poa annua (POAAN), Alopecurus myosuroides (ALOMY). All five of these are grassy monocotyledonous weeds. Except for SETVI, these are all “cool-season” grassy monocotyledonous weeds.
# Poa annua (POAAN) = test: as above; conditions: 14 DAA
# Procedure: as §1, §2, §3, §4, §5, §6, §7, §8, §9, §10
# Avena fatua (AVEFA) = test: as above; conditions: 14 DAA
# Procedure: as §1, §2, §3, §4, §5, §6, §7, §8, §9, §10
# [3] = test system: Lolium multiflorum (LOLMU); test: as above; conditions: 14 DAA
# Procedure: as §1, §2, §3, §4, §5, §6, §7, §8, §9, §10
# Setaria viridis (SETVI) = test: as above; conditions: 14 DAA
# Procedure: as §1, §2, §3, §4, §5, §6, §7, §8, §9, §10
# [4] = herbicide 30 g/ha, cloquintocet-mexyl 50 g/ha
# [5] = herbicide 45 g/ha, cloquintocet-mexyl 50 g/ha
# [6] = herbicide 60 g/ha, cloquintocet-mexyl 0 g/ha
# [7] = herbicide 60 g/ha, cloquintocet-mexyl 50 g/ha
# [8] = 30 g/ha herbicide, 50 g/ha cloquintocet-mexyl
# [9] = 45 g/ha herbicide, 50 g/ha cloquintocet-mexyl
# [10] = 60 g/ha herbicide, 0 g/ha cloquintocet-mexyl
# [11] = 60 g/ha herbicide, 50 g/ha cloquintocet-mexyl
Compound,Percentage Phytotoxicity Winter Barley “Suzuka” (Winter Barley “Suzuka”; [4]) [%],Percentage Phytotoxicity Winter Barley “Suzuka” (Winter Barley “Suzuka”; [5]) [%],Percentage Phytotoxicity Winter Barley “Suzuka” (Winter Barley “Suzuka”; [6]) [%],Percentage Phytotoxicity Winter Barley “Suzuka” (Winter Barley “Suzuka”; [7]) [%],"Percentage Phytotoxicity Spring Barley “Harrington” [1, 4] [%]","Percentage Phytotoxicity Spring Barley “Harrington” [1, 5] [%]","Percentage Phytotoxicity Spring Barley “Harrington” [1, 6] [%]","Percentage Phytotoxicity Spring Barley “Harrington” [1, 7] [%]",Percentage Phytotoxicity Winter Wheat “Hereward” (Winter Wheat “Hereward”; [4]) [%],Percentage Phytotoxicity Winter Wheat “Hereward” (Winter Wheat “Hereward”; [5]) [%],Percentage Phytotoxicity Winter Wheat “Hereward” (Winter Wheat “Hereward”; [6]) [%],Percentage Phytotoxicity Winter Wheat “Hereward” (Winter Wheat “Hereward”; [7]) [%],Percentage Phytotoxicity Spring Wheat “Freya” (Spring Wheat “Freya”; [4]) [%],Percentage Phytotoxicity Spring Wheat “Freya” (Spring Wheat “Freya”; [5]) [%],Percentage Phytotoxicity Spring Wheat “Freya” (Spring Wheat “Freya”; [6]) [%],Percentage Phytotoxicity Spring Wheat “Freya” (Spring Wheat “Freya”; [7]) [%],"Post-emergence herbicidal activity, percentage phytotoxicity, ALOMY [2, 8] [%]","Post-emergence herbicidal activity, percentage phytotoxicity, ALOMY [2, 9] [%]","Post-emergence herbicidal activity, percentage phytotoxicity, ALOMY [2, 10] [%]","Post-emergence herbicidal activity, percentage phytotoxicity, ALOMY [2, 11] [%]",other results
Cc1cc(C)c(C2C(=O)C[C@@H](CCNC(=O)c3cccc(F)n3)C2=O)c(C)c1 (stereo partly drawn) [Compound A112],18,30,88,53,30,45,93,73,33,40,85,50,25,33,75,50,97,97,99,98,"Post-emergence herbicidal activity, percentage phytotoxicity, POAAN (Poa annua (POAAN); [8]): 0%; Post-emergence herbicidal activity, percentage phytotoxicity, POAAN (Poa annua (POAAN); [9]): 0%; Post-emergence herbicidal activity, percentage phytotoxicity, POAAN (Poa annua (POAAN); [10]): 40%; Post-emergence herbicidal activity, percentage phytotoxicity, POAAN (Poa annua (POAAN); [11]): 13%; Post-emergence herbicidal activity, percentage phytotoxicity, AVEFA (Avena fatua (AVEFA); [8]): 93%; Post-emergence herbicidal activity, percentage phytotoxicity, AVEFA (Avena fatua (AVEFA); [9]): 94%; Post-emergence herbicidal activity, percentage phytotoxicity, AVEFA (Avena fatua (AVEFA); [10]): 98%; Post-emergence herbicidal activity, percentage phytotoxicity, AVEFA (Avena fatua (AVEFA); [11]): 97%; Post-emergence herbicidal activity, percentage phytotoxicity, LOLMU [3, 8]: 98%; Post-emergence herbicidal activity, percentage phytotoxicity, LOLMU [3, 9]: 100%; Post-emergence herbicidal activity, percentage phytotoxicity, LOLMU [3, 10]: 100%; Post-emergence herbicidal activity, percentage phytotoxicity, LOLMU [3, 11]: 100%; Post-emergence herbicidal activity, percentage phytotoxicity, SETVI (Setaria viridis (SETVI); [8]): 100%; Post-emergence herbicidal activity, percentage phytotoxicity, SETVI (Setaria viridis (SETVI); [9]): 100%; Post-emergence herbicidal activity, percentage phytotoxicity, SETVI (Setaria viridis (SETVI); [10]): 100%; Post-emergence herbicidal activity, percentage phytotoxicity, SETVI (Setaria viridis (SETVI); [11]): 100%"
Cc1cc(C)c(C2C(=O)C[C@H](CCNC(=O)c3cccc(F)n3)C2=O)c(C)c1 (stereo partly drawn) [Compound A113],0,0,28,0,0,0,33,8,0,0,3,0,3,0,7,0,0,18,20,25,"Post-emergence herbicidal activity, percentage phytotoxicity, POAAN (Poa annua (POAAN); [8]): 0%; Post-emergence herbicidal activity, percentage phytotoxicity, POAAN (Poa annua (POAAN); [9]): 0%; Post-emergence herbicidal activity, percentage phytotoxicity, POAAN (Poa annua (POAAN); [10]): 8%; Post-emergence herbicidal activity, percentage phytotoxicity, POAAN (Poa annua (POAAN); [11]): 0%; Post-emergence herbicidal activity, percentage phytotoxicity, AVEFA (Avena fatua (AVEFA); [8]): 1%; Post-emergence herbicidal activity, percentage phytotoxicity, AVEFA (Avena fatua (AVEFA); [9]): 3%; Post-emergence herbicidal activity, percentage phytotoxicity, AVEFA (Avena fatua (AVEFA); [10]): 5%; Post-emergence herbicidal activity, percentage phytotoxicity, AVEFA (Avena fatua (AVEFA); [11]): 3%; Post-emergence herbicidal activity, percentage phytotoxicity, LOLMU [3, 8]: 3%; Post-emergence herbicidal activity, percentage phytotoxicity, LOLMU [3, 9]: 20%; Post-emergence herbicidal activity, percentage phytotoxicity, LOLMU [3, 10]: 45%; Post-emergence herbicidal activity, percentage phytotoxicity, LOLMU [3, 11]: 23%; Post-emergence herbicidal activity, percentage phytotoxicity, SETVI (Setaria viridis (SETVI); [8]): 5%; Post-emergence herbicidal activity, percentage phytotoxicity, SETVI (Setaria viridis (SETVI); [9]): 40%; Post-emergence herbicidal activity, percentage phytotoxicity, SETVI (Setaria viridis (SETVI); [10]): 53%; Post-emergence herbicidal activity, percentage phytotoxicity, SETVI (Setaria viridis (SETVI); [11]): 55%"
